Assay results published in patent US9302999B2, “Substituted triazoles as herbicides” (E. I. DU PONT DE NEMOURS AND COMPANY, priority 2012, dated 2016).

Legend:
Format in all cases: in vivo
corn (Zea mays) = test: Test C pre-/postemergence: corn
Outline: (§1)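 Visual injury scored 0–100 (100 = complete control) against untreated controls after 13–15 greenhouse days. Surfactant-containing solvent formulations applied either to soil after sowing (loam/sand) or over 1- to 4-leaf plants, 2–18 cm tall.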

kochia (Kochia scoparia) = test: Test C pre-/postemergence: kochia
Outline: as §1

[1] = system: ducksalad (Heteranthera limosa); test: Test B flooded paddy: ducksalad; conditions: Flood, applied to paddy water at 2-leaf stage, visually evaluated after 13 to 15 days
Outline: (§2)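 Greenhouse assay lasting 13 to 15 days. Treatment was into water flooding pots 3 cm deep, at the 2-leaf stage, with that level sustained afterwards. Scores compare treated with control plants visually, 100 denoting complete control and 0 no effect; a dash marks no test result.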

[2] = system: chickweed (common chickweed, Stellaria media); test: Test C postemergence: chickweed
Outline: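 Plants at the 1- to 4-leaf stage (2 to 18 cm tall), grown in pots of peat moss/vermiculite planting medium, received postemergence applications of the formulated test chemicals. After 13 to 15 days in a greenhouse, injury was scored visually versus controls from 0 (no effect) to 100 (complete control).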

[3] = system: large crabgrass (Digitaria sanguinalis); test: Test C pre-/postemergence: large crabgrass
Outline: as §1

[4] = system: barnyardgrass (Echinochloa crus-galli); test: Test B flooded paddy: barnyardgrass; conditions: Flood, applied to paddy water at 2-leaf stage, visually evaluated after 13 to 15 days
Outline: as §2

[5] = system: barnyardgrass (Echinochloa crus-galli); test: Test A pre-/postemergence: barnyardgrass
Outline: (§3)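 Pre: directed soil spray after planting in loam + sand. Post: same formulation (non-phytotoxic solvent + surfactant) on 1–2-leaf plants, 2–10 cm. Greenhouse ~10 d; visual injury 0–100 vs untreated.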

soybean (Glycine max) = test: Test C pre-/postemergence: soybean
Outline: as §1

[6] = system: foxtail, giant (giant foxtail, Setaria faberii); test: Test C pre-/postemergence: foxtail, giant
Outline: as §1

[7] = system: morningglory (Ipomoea spp.); test: Test A pre-/postemergence: morningglory
Outline: as §3

[8] = system: velvetleaf (Abutilon theophrasti); test: Test A pre-/postemergence: velvetleaf
Outline: as §3

[9] = Postemergence, 31 g ai/ha, scale 0 to 100 (0 no effect, 100 complete control)
[10] = Postemergence, 62 g ai/ha, scale 0 to 100 (0 no effect, 100 complete control)
[11] = Postemergence, 125 g ai/ha, scale 0 to 100, 0 no effect, 100 complete control
[12] = Postemergence, 250 g ai/ha, scale 0 to 100
[13] = 31 g ai/ha, scale 0 to 100 (0 no effect, 100 complete control)
[14] = 62 g ai/ha, scale 0 to 100 (0 no effect, 100 complete control)
[15] = 125 g ai/ha, scale 0 to 100, 0 no effect, 100 complete control
[16] = Postemergence, 125 g ai/ha, 0 to 100 scale, 0 is no effect, 100 is complete control
[17] = Postemergence, 500 g ai/ha, visual rating on 0 to 100 scale (0 no effect, 100 complete control), approximately ten days
[18] = Preemergence, 125 g ai/ha, 0 to 100 scale where 0 is no effect and 100 is complete control
[19] = Preemergence, 500 g ai/ha, 0 to 100 scale (0 no effect, 100 complete control)
[20] = Preemergence, 31 g ai/ha, scale of 0 to 100, 0 is no effect, 100 is complete control
[21] = Preemergence, 125 g ai/ha, scale 0 to 100, 0 no effect, 100 complete control
[22] = Preemergence, 250 g ai/ha, scale 0 to 100, 0 no effect, 100 complete control
[23] = Preemergence, 62 g ai/ha, scale of 0 to 100, 0 is no effect, 100 is complete control
[24] = Preemergence, 125 g ai/ha, 0 to 100 scale (0 no effect, 100 complete control)
[25] = Preemergence, 500 g ai/ha, 0 to 100 scale, 0 is no effect, 100 is complete control
[26] = Preemergence, 31 g ai/ha, scale 0 (no effect) to 100 (complete control)
[27] = Postemergence, 250 g ai/ha, scale 0 to 100 (0 no effect, 100 complete control)
[28] = Postemergence, 500 g ai/ha, 0 to 100 scale, 0 is no effect, 100 is complete control

Structure (SMILES): Cc1nn(-c2ccnc(Cl)c2)nc1Cc1ccnc(C(F)(F)F)c1 [Compound 141]
- Plant response rating, Corn (corn (Zea mays); [9]): 45
- Plant response rating, Corn (corn (Zea mays); [10]): 45
- Plant response rating, Corn (corn (Zea mays); [11]): 55
- Plant response rating, Corn (corn (Zea mays); [12]): 60
- Plant response rating, Kochia (kochia (Kochia scoparia); [9]): 85
- Plant response rating, Kochia (kochia (Kochia scoparia); [10]): 90
- Plant response rating, Kochia (kochia (Kochia scoparia); [11]): 90
- Plant response rating, Kochia (kochia (Kochia scoparia); [12]): 90
- Plant response rating, Ducksalad (0 to 100 scale, 0 is no effect, 100 is complete control) ([1]; 250 g ai/ha): 85
- Plant response rating, Chickweed [2, 13]: 80
- Plant response rating, Chickweed [2, 14]: 90
- Plant response rating, Chickweed [2, 15]: 98
- Plant response rating, Chickweed ([2]; 250 g ai/ha, scale 0 to 100): 100
- Plant response rating, Crabgrass, Large [3, 9]: 20
- Plant response rating, Crabgrass, Large [3, 10]: 55
- Plant response rating, Crabgrass, Large [3, 11]: 80
- Plant response rating, Crabgrass, Large [3, 12]: 95
- Plant response rating, Barnyardgrass (0 to 100 scale, 0 is no effect, 100 is complete control) ([4]; 250 g ai/ha): 20
- Barnyardgrass plant response rating [5, 16]: 80
- Barnyardgrass plant response rating [5, 17]: 90
- Plant response rating, Barnyardgrass [5, 18]: 40
- Plant response rating, Barnyardgrass [5, 19]: 100
- Plant response rating, Soybean (soybean (Glycine max); [9]): 40
- Plant response rating, Soybean (soybean (Glycine max); [10]): 55
- Plant response rating, Soybean (soybean (Glycine max); [11]): 55
- Plant response rating, Soybean (soybean (Glycine max); [12]): 65
- Plant response rating, Foxtail, Giant [6, 9]: 10
- Plant response rating, Foxtail, Giant [6, 10]: 20
- Plant response rating, Foxtail, Giant [6, 11]: 45
- Plant response rating, Foxtail, Giant [6, 12]: 80
- Plant response rating, Morningglory [7, 16]: 80
- Morningglory plant response rating [7, 17]: 90
- Plant response rating, Morningglory [7, 18]: 30
- Plant response rating, Morningglory [7, 19]: 60
- Plant response rating, Velvetleaf [8, 16]: 70
- Velvetleaf plant response rating [8, 17]: 90
- Plant response rating, Velvetleaf [8, 18]: 20
- Plant response rating, Velvetleaf [8, 19]: 60

Structure (SMILES): Fc1ccc(-n2nc(Cc3ccnc(C(F)(F)F)c3)c(OC(F)F)n2)cc1 [Compound 25]
- Plant response rating, Corn (corn (Zea mays); [9]): 20
- Plant response rating, Corn (corn (Zea mays); [10]): 20
- Plant response rating, Corn (corn (Zea mays); [11]): 20
- Plant response rating, Corn (corn (Zea mays); [12]): 25
- Plant response rating, Corn (corn (Zea mays); [20]): 0
- Plant response rating, Corn (corn (Zea mays); Preemergence, 62 g ai/ha, scale 0 to 100, 0 no effect, 100 complete control): 0
- Plant response rating, Corn (corn (Zea mays); [21]): 5
- Plant response rating, Corn (corn (Zea mays); [22]): 10
- Plant response rating, Kochia (kochia (Kochia scoparia); [9]): 75
- Plant response rating, Kochia (kochia (Kochia scoparia); [10]): 80
- Plant response rating, Kochia (kochia (Kochia scoparia); [11]): 90
- Plant response rating, Kochia (kochia (Kochia scoparia); [12]): 90
- Plant response rating, Kochia (kochia (Kochia scoparia); [20]): 10
- Plant response rating, Kochia (kochia (Kochia scoparia); [23]): 40
- Plant response rating, Kochia (kochia (Kochia scoparia); [21]): 55
- Plant response rating, Kochia (kochia (Kochia scoparia); [22]): 85
- Plant response rating, Ducksalad (0 to 100 scale, 0 is no effect, 100 is complete control) ([1]; 250 g ai/ha): 90
- Plant response rating, Chickweed [2, 13]: 30
- Plant response rating, Chickweed [2, 14]: 60
- Plant response rating, Chickweed [2, 15]: 98
- Plant response rating, Chickweed ([2]; 250 g ai/ha, scale 0 to 100): 98
- Plant response rating, Crabgrass, Large [3, 9]: 15
- Plant response rating, Crabgrass, Large [3, 10]: 20
- Plant response rating, Crabgrass, Large [3, 11]: 40
- Plant response rating, Crabgrass, Large [3, 12]: 65
- Plant response rating, Crabgrass, Large [3, 20]: 98
- Plant response rating, Crabgrass, Large [3, 23]: 100
- Plant response rating, Crabgrass, Large [3, 21]: 100
- Plant response rating, Crabgrass, Large [3, 22]: 100
- Plant response rating, Barnyardgrass (0 to 100 scale, 0 is no effect, 100 is complete control) ([4]; 250 g ai/ha): 30
- Barnyardgrass plant response rating [5, 16]: 50
- Barnyardgrass plant response rating [5, 17]: 90
- Plant response rating, Barnyardgrass [5, 24]: 80
- Plant response rating, Barnyardgrass [5, 25]: 90
- Plant response rating, Soybean (soybean (Glycine max); [9]): 25
- Plant response rating, Soybean (soybean (Glycine max); [10]): 30
- Plant response rating, Soybean (soybean (Glycine max); [11]): 30
- Plant response rating, Soybean (soybean (Glycine max); [12]): 30
- Plant response rating, Soybean (soybean (Glycine max); [20]): 0
- Plant response rating, Soybean (soybean (Glycine max); [23]): 0
- Plant response rating, Soybean (soybean (Glycine max); [21]): 0
- Plant response rating, Soybean (soybean (Glycine max); [22]): 10
- Plant response rating, Foxtail, Giant [6, 9]: 35
- Plant response rating, Foxtail, Giant [6, 10]: 45
- Plant response rating, Foxtail, Giant [6, 11]: 55
- Plant response rating, Foxtail, Giant [6, 12]: 60
- Plant response rating, Foxtail, Giant [6, 20]: 98
- Plant response rating, Foxtail, Giant [6, 23]: 100
- Plant response rating, Foxtail, Giant [6, 21]: 100
- Plant response rating, Foxtail, Giant [6, 22]: 100
- Morningglory plant response rating [7, 16]: 100
- Morningglory plant response rating [7, 17]: 100
- Plant response rating, Morningglory [7, 24]: 30
- Plant response rating, Morningglory [7, 25]: 80
- Velvetleaf plant response rating [8, 16]: 80
- Velvetleaf plant response rating [8, 17]: 100
- Plant response rating, Velvetleaf [8, 24]: 20
- Plant response rating, Velvetleaf [8, 25]: 80

Structure (SMILES): CCCc1nn(-c2ccc(F)cc2F)nc1Oc1ccnc(C(F)(F)F)c1 [Compound 179]
- Plant response rating, Corn (corn (Zea mays); [9]): 15
- Plant response rating, Corn (corn (Zea mays); [10]): 15
- Plant response rating, Corn (corn (Zea mays); [11]): 15
- Plant response rating, Corn (corn (Zea mays); [12]): 15
- Plant response rating, Corn (corn (Zea mays); [26]): 5
- Plant response rating, Corn (corn (Zea mays); [23]): 20
- Plant response rating, Corn (corn (Zea mays); [21]): 20
- Plant response rating, Corn (corn (Zea mays); [22]): 20
- Plant response rating, Kochia (kochia (Kochia scoparia); [9]): 80
- Plant response rating, Kochia (kochia (Kochia scoparia); [10]): 90
- Plant response rating, Kochia (kochia (Kochia scoparia); [11]): 90
- Plant response rating, Kochia (kochia (Kochia scoparia); [27]): 90
- Plant response rating, Ducksalad (0 to 100 scale, 0 is no effect, 100 is complete control) ([1]; 125 g ai/ha): 65
- Plant response rating, Chickweed [2, 13]: 75
- Plant response rating, Chickweed [2, 14]: 80
- Plant response rating, Chickweed [2, 15]: 85
- Plant response rating, Chickweed ([2]; 250 g ai/ha, scale 0 to 100): 95
- Plant response rating, Crabgrass, Large [3, 9]: 20
- Plant response rating, Crabgrass, Large [3, 10]: 20
- Plant response rating, Crabgrass, Large [3, 11]: 35
- Plant response rating, Crabgrass, Large [3, 12]: 80
- Plant response rating, Crabgrass, Large [3, 26]: 100
- Plant response rating, Crabgrass, Large [3, 23]: 100
- Plant response rating, Crabgrass, Large [3, 21]: 100
- Plant response rating, Crabgrass, Large [3, 22]: 100
- Plant response rating, Barnyardgrass (0 to 100 scale, 0 is no effect, 100 is complete control) ([4]; 125 g ai/ha): 0
- Plant response rating, Barnyardgrass [5, 16]: 90
- Barnyardgrass plant response rating [5, 28]: 90
- Plant response rating, Barnyardgrass [5, 18]: 90
- Plant response rating, Barnyardgrass [5, 19]: 100
- Plant response rating, Soybean (soybean (Glycine max); [9]): 30
- Plant response rating, Soybean (soybean (Glycine max); [10]): 35
- Plant response rating, Soybean (soybean (Glycine max); [11]): 45
- Plant response rating, Soybean (soybean (Glycine max); [27]): 45
- Plant response rating, Soybean (soybean (Glycine max); [26]): 0
- Plant response rating, Soybean (soybean (Glycine max); [23]): 10
- Plant response rating, Soybean (soybean (Glycine max); [21]): 10
- Plant response rating, Soybean (soybean (Glycine max); [22]): 25
- Plant response rating, Foxtail, Giant [6, 9]: 35
- Plant response rating, Foxtail, Giant [6, 10]: 40
- Plant response rating, Foxtail, Giant [6, 11]: 55
- Plant response rating, Foxtail, Giant [6, 12]: 80
- Plant response rating, Foxtail, Giant [6, 26]: 100
- Plant response rating, Foxtail, Giant [6, 23]: 100
- Plant response rating, Foxtail, Giant [6, 21]: 100
- Plant response rating, Foxtail, Giant [6, 22]: 100
- Plant response rating, Morningglory [7, 16]: 100
- Morningglory plant response rating [7, 28]: 100
- Plant response rating, Morningglory [7, 18]: 40
- Plant response rating, Morningglory [7, 19]: 70
- Plant response rating, Velvetleaf [8, 16]: 90
- Velvetleaf plant response rating [8, 28]: 100
- Plant response rating, Velvetleaf [8, 18]: 80
- Plant response rating, Velvetleaf [8, 19]: 100
